# Values joined by “and” are separate entries in the source; they are usually repeats but may differ in a detail not shown here. Identical values can stand only once.
# System: Rh18 complex spheroid viability, percent test/control
# Test: Anticancer human tumor Rh18 cell line growth inhibition [Asc];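 further: spheroids exposed to compound for 7 days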;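 on viability, T/C: 100% = DMSO vehicle control wells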
# Details: for viability, T/C: stronger effect = lower value
# Method in brief: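 Spheroid model: tumor line + HUVEC + hMSC. Single agents and combinations; top conc. at/near clinical Cmax (10 microM if undetermined), half-log dilutions. DMSO stocks at 800-fold test concentration.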
# [1] = curve of first compound, second compound 0.1 µM
# [2] = curve of first compound, second compound 0.316 µM
# [3] = curve of first compound, second compound 1 µM
# [4] = second compound 0.1 µM, first compound 0.0316 µM
# [5] = second compound 0.1 µM, first compound 0.1 µM
# [6] = second compound 0.1 µM, first compound 0.316 µM
# [7] = second compound 0.1 µM, first compound 1 µM
# [8] = second compound 0.1 µM, first compound 3.16 µM
# [9] = second compound 0.1 µM, first compound 10 µM
# [10] = second compound 0.316 µM, first compound 0.0316 µM
# [11] = second compound 0.316 µM, first compound 0.1 µM
# [12] = second compound 0.316 µM, first compound 0.316 µM
# [13] = second compound 0.316 µM, first compound 1 µM
# [14] = second compound 0.316 µM, first compound 3.16 µM
# [15] = second compound 0.316 µM, first compound 10 µM
# [16] = second compound 1 µM, first compound 0.0316 µM
# [17] = second compound 1 µM, first compound 0.1 µM
# [18] = second compound 1 µM, first compound 0.316 µM
# [19] = second compound 1 µM, first compound 1 µM
# [20] = second compound 1 µM, first compound 3.16 µM
# [21] = second compound 1 µM, first compound 10 µM
# [22] = curve of first compound, second compound 0.01 µM
# [23] = curve of first compound, second compound 0.0316 µM
# [24] = second compound 0.01 µM, first compound 0.0316 µM
# [25] = second compound 0.01 µM, first compound 0.1 µM
# [26] = second compound 0.01 µM, first compound 0.316 µM
# [27] = second compound 0.01 µM, first compound 1 µM
# [28] = second compound 0.0316 µM, first compound 0.0316 µM
# [29] = second compound 0.0316 µM, first compound 0.1 µM
# [30] = second compound 0.0316 µM, first compound 0.316 µM
# [31] = second compound 0.0316 µM, first compound 1 µM
compound,measurement,setting,value
O=C(c1cc(Cc2n[nH]c(=O)c3ccccc23)ccc1F)N1CCN(C(=O)C2CC2)CC1 + Cc1c(S(C)(=O)=O)c(-c2cc(F)cc(N3CCN(c4ccc(NS(=O)(=O)c5ccc(NC(CCN6CCC(C(=O)OCCCP(=O)(O)O)CC6)CSc6ccccc6)c(S(=O)(=O)C(F)(F)F)c5)cc4)CC3)c2)c(-c2ccc(Cl)cc2)n1C(C)C,IC50,[1],< 31.6 nM
same,IC50,[2],< 31.6 nM
same,IC50,[3],< 31.6 nM
same,IC50,"curve of first compound, second compound 3.16 µM",< 31.6 nM
same,IC50,"curve of first compound, second compound 10 µM",< 31.6 nM
same,"viability, T/C",[4],14.8%
same,"viability, T/C",[5],14.2%
same,"viability, T/C",[6],14.6%
same,"viability, T/C",[7],17.6%
same,"viability, T/C",[8],18.5%
same,"viability, T/C",[9],13.5%
same,"viability, T/C",[10],9.83%
same,"viability, T/C",[11],9.85%
same,"viability, T/C",[12],10.5%
same,"viability, T/C",[13],10.7%
same,"viability, T/C",[14],16.4%
same,"viability, T/C",[15],9.72%
same,"viability, T/C",[16],8.79%
same,"viability, T/C",[17],10.4%
same,"viability, T/C",[18],9.85%
same,"viability, T/C",[19],8.8%
same,"viability, T/C",[20],11%
same,"viability, T/C",[21],8.8%
same,"viability, T/C","second compound 3.16 µM, first compound 0.0316 µM",6.37%
same,"viability, T/C","second compound 3.16 µM, first compound 0.1 µM",7.47%
same,"viability, T/C","second compound 3.16 µM, first compound 0.316 µM",8.14%
same,"viability, T/C","second compound 3.16 µM, first compound 1 µM",5.82%
same,"viability, T/C","second compound 3.16 µM, first compound 3.16 µM",8%
same,"viability, T/C","second compound 3.16 µM, first compound 10 µM",7.02%
same,"viability, T/C","second compound 10 µM, first compound 0.0316 µM",4.38%
same,"viability, T/C","second compound 10 µM, first compound 0.1 µM",4.61%
same,"viability, T/C","second compound 10 µM, first compound 0.316 µM",6.78%
same,"viability, T/C","second compound 10 µM, first compound 1 µM",4.36%
same,"viability, T/C","second compound 10 µM, first compound 3.16 µM",5.03%
same,"viability, T/C","second compound 10 µM, first compound 10 µM",5.76%
CCN1C(C(=O)NC23CCC(C(=O)O)(CC2)CC3)C(c2cccc(Cl)c2F)C2(C(=O)Nc3cc(Cl)ccc32)C12CCCCC2 (stereo not drawn),"viability, T/C",compound 0.00949 µM,53.3% and 52.8%
same,"viability, T/C",compound 0.03 µM,38.3% [middle of 15 runs]
same,"viability, T/C",compound 0.0949 µM,21.1% [middle of 15 runs]
same,"viability, T/C",compound 0.3 µM,13% [middle of 15 runs]
same,"viability, T/C",compound 0.949 µM,9.56% [middle of 15 runs]
same,"viability, T/C",compound 3 µM,9.14% [middle of 15 runs]
same,IC50,"compound alone, run of 10/11/2022",< 30 nM
same,IC50,curve of compound,17.8 nM and 11.6 nM
C=C(F)C(=O)N1CCN(c2nc(OCC3CCCN3C)nc3c2CCN(c2cccc4cccc(Cl)c24)C3)CC1CC#N (stereo not drawn) + CNC(C)C(=O)NC1CN(S(=O)(=O)c2cccc(S(=O)(=O)N3CCC4CCC(C(=O)NC(c5ccccc5)c5ccccc5)N4C(=O)C(NC(=O)C(C)NC)C3)c2)CCC2CCC(C(=O)NC(c3ccccc3)c3ccccc3)N2C1=O,IC50,[22],484 nM
same,IC50,[23],152 nM
same,IC50,[1],< 31.6 nM
same,IC50,[2],< 31.6 nM
same,IC50,[3],< 31.6 nM
same,"viability, T/C",[24],71%
same,"viability, T/C",[25],70.1%
same,"viability, T/C",[26],53.5%
same,"viability, T/C",[27],40.7%
same,"viability, T/C","second compound 0.01 µM, first compound 3.16 µM",16.2%
same,"viability, T/C","second compound 0.01 µM, first compound 10 µM",0.19%
same,"viability, T/C",[28],46.5%
same,"viability, T/C",[29],62.6%
same,"viability, T/C",[30],39.8%
same,"viability, T/C",[31],39.7%
same,"viability, T/C","second compound 0.0316 µM, first compound 3.16 µM",14.8%
same,"viability, T/C","second compound 0.0316 µM, first compound 10 µM",0.18%
same,"viability, T/C",[4],41.6%
same,"viability, T/C",[5],42.2%
same,"viability, T/C",[6],43.8%
same,"viability, T/C",[7],34.4%
same,"viability, T/C",[8],10.1%
same,"viability, T/C",[9],0.19%
same,"viability, T/C",[10],49.4%
same,"viability, T/C",[11],49%
same,"viability, T/C",[12],47.7%
same,"viability, T/C",[13],39.2%
same,"viability, T/C",[14],10.8%
same,"viability, T/C",[15],0.19%
same,"viability, T/C",[16],42.3%
same,"viability, T/C",[17],45.3%
same,"viability, T/C",[18],37.7%
same,"viability, T/C",[19],31.3%
same,"viability, T/C",[20],6.38%
same,"viability, T/C",[21],0.2%
CCN1CCN(Cc2ccc(Nc3ncc(F)c(-c4cc(F)c5nc(C)n(C(C)C)c5c4)n3)nc2)CC1 + CNC(C)C(=O)NC1CN(S(=O)(=O)c2cccc(S(=O)(=O)N3CCC4CCC(C(=O)NC(c5ccccc5)c5ccccc5)N4C(=O)C(NC(=O)C(C)NC)C3)c2)CCC2CCC(C(=O)NC(c3ccccc3)c3ccccc3)N2C1=O,IC50,[22],< 3.16 nM
same,IC50,[23],< 3.16 nM
same,IC50,[1],< 3.16 nM
same,IC50,[2],< 3.16 nM
same,IC50,[3],< 3.16 nM
same,"viability, T/C","second compound 0.01 µM, first compound 0.00316 µM",57%
same,"viability, T/C","second compound 0.01 µM, first compound 0.01 µM",50%
same,"viability, T/C",[24],39.2%
same,"viability, T/C",[25],40.6%
same,"viability, T/C",[26],58.6%
same,"viability, T/C",[27],86.7%
same,"viability, T/C","second compound 0.0316 µM, first compound 0.00316 µM",47.7%
same,"viability, T/C","second compound 0.0316 µM, first compound 0.01 µM",46.1%
same,"viability, T/C",[28],39.6%
same,"viability, T/C",[29],38%
same,"viability, T/C",[30],48.7%
same,"viability, T/C",[31],90.9%
same,"viability, T/C","second compound 0.1 µM, first compound 0.00316 µM",47.1%
same,"viability, T/C","second compound 0.1 µM, first compound 0.01 µM",47.5%
same,"viability, T/C",[4],35.2%
same,"viability, T/C",[5],40.1%
same,"viability, T/C",[6],48.3%
same,"viability, T/C",[7],53.8%
same,"viability, T/C","second compound 0.316 µM, first compound 0.00316 µM",59.2%
same,"viability, T/C","second compound 0.316 µM, first compound 0.01 µM",47.2%
same,"viability, T/C",[10],38.3%
same,"viability, T/C",[11],35.7%
same,"viability, T/C",[12],44.4%
same,"viability, T/C",[13],67.4%
same,"viability, T/C","second compound 1 µM, first compound 0.00316 µM",34.7%
same,"viability, T/C","second compound 1 µM, first compound 0.01 µM",30%
same,"viability, T/C",[16],30.6%
same,"viability, T/C",[17],29.5%
same,"viability, T/C",[18],38.7%
same,"viability, T/C",[19],60.7%

# Reference: PubChem BioAssay AID1963431 (Molecular Pharmacology Branch, DTP, NCI, 2024)
